According to ChEMBL document CHEMBL5244210, “Drug discovery in tuberculosis. New drug targets and antimycobacterial agents” (Eur J Med Chem, 2018):
Converted amounts (≈) assume the structure as drawn.

Columns and labels:
[1] = test system: Mycobacterium tuberculosis; assay: Antibacterial activity against Mycobacterium tuberculosis MmpL3 assessed as bacterial growth inhibition by HTS assay; assay type: functional
[2] = test system: Mycobacterium tuberculosis; assay: Antibacterial activity against Mycobacterium tuberculosis H37Rv MTCC 300 assessed as bacterial growth inhibition by alamar blue assay; assay type: functional
[3] = test system: Mycobacterium tuberculosis; assay: Antibacterial activity against Mycobacterium tuberculosis H37Rv assessed as bacterial growth inhibition incubated for 6 days by resazurin staining based assay; assay type: functional; settings: 144 h, time 6 day
[4] = test system: Mycobacterium tuberculosis; assay: Antibacterial activity against wild type Mycobacterium tuberculosis H37Rv assessed as bacterial growth inhibition incubated for 6 days by HTS assay; assay type: functional; settings: 144 h, time 6 day
[5] = test system: Mycobacterium tuberculosis; assay: Antibacterial activity against wild type Mycobacterium tuberculosis H37Rv assessed as bacterial growth inhibition; assay type: functional, organism-based
[6] = test system: Mycobacterium tuberculosis; assay: Antibacterial activity against Mycobacterium tuberculosis assessed as bacterial growth inhibition; assay type: functional
[7] = test system: Mycobacterium tuberculosis; assay: Antibacterial activity against Mycobacterium tuberculosis H37RV ATCC 27294 assessed as bacterial growth inhibition; assay type: functional
[8] = test system: Mycobacterium tuberculosis; assay: Antibacterial activity against Mycobacterium tuberculosis H37Rv infected in human THP-1 cells assessed as bacterial growth inhibition; assay type: functional
[9] = test system: Mycobacterium tuberculosis; assay: Antibacterial activity against Mycobacterium tuberculosis assessed as bacterial growth inhibition by HTS assay; assay type: functional
[10] = test system: Mycobacterium tuberculosis; assay: Antibacterial activity against Mycobacterium tuberculosis H37Rv (ATCC 27294) assessed as bacterial growth inhibition incubated for 7 days by MABA assay; assay type: functional; settings: 168 h, time 7 day
[11] = Oral bioavailability in mouse; assay type: ADME, organism-based; settings: in vivo
[12] = test system: Mycobacterium tuberculosis; assay: Antibacterial activity against Mycobacterium tuberculosis H37Rv infected in mouse RAW264.7 cells assessed as bacterial growth inhibition; assay type: functional
[13] = test system: Mycobacterium tuberculosis; assay: Antibacterial activity against Mycobacterium tuberculosis infected in mouse RAW264.7 cells assessed as bacterial growth inhibition by REMA assay; assay type: functional, organism-based
[14] = test system: Mycobacterium tuberculosis; assay: Antibacterial activity against Mycobacterium tuberculosis H37Rv infected in mouse RAW264.7 cells assessed as bacterial growth inhibition by REMA assay; assay type: functional
[15] = test system: Mycobacterium tuberculosis; assay: Antibacterial activity against Mycobacterium tuberculosis H37Rv (ATCC 27294) assessed as bacterial growth inhibition by MABA assay; assay type: functional
[16] = test system: Mycobacterium tuberculosis; assay: Antibacterial activity against wild type Mycobacterium tuberculosis H37Rv assessed as bacterial growth inhibition by alamar blue staining based assay; assay type: functional
[17] = test system: Mycobacterium tuberculosis; assay: Antibacterial activity against wild type Mycobacterium tuberculosis H37Rv infected in BALB/c mouse assessed as bacterial growth inhibition po administrated for 5 days a week via gavage for 4 weeks; assay type: functional; settings: 672 h
[18] = molecular target: T1, Enoyl-[acyl-carrier-protein] reductase [NADH] (Mycobacterium tuberculosis) (UniProt P9WGR1); assay: Inhibition of Mycobacterium tuberculosis InhA assessed as residence time
T1 sequence (whole entry): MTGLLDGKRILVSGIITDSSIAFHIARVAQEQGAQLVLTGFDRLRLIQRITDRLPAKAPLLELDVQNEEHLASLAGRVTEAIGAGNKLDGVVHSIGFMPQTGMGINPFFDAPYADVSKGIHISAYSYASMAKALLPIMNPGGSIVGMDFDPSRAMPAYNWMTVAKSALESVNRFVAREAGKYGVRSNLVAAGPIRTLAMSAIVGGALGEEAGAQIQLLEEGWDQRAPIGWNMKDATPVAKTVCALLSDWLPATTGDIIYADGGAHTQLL

Work on `CCCn1cnc2cc(NCc3ccc(Cl)cc3Cl)ccc21` yielded an MIC [1] of 16 µM (≈ 5.35 µg/mL).

With `O=C(Nc1nnc(-c2ccc([N+](=O)[O-])cc2)s1)C1CC(=O)N(c2ccccc2)C1` (stereo not drawn) the MIC [2] was 61 µM (≈ 25 µg/mL).

For `CCc1ccc([C@H]2C[C@@H](C(F)(F)F)n3ncc(C(=O)NCc4ccc(OC)cc4)c3N2)cc1`, the MIC [3] was 0.3 µM (≈ 0.138 µg/mL).

With `CC1(C)CCC(NC(=O)c2cc3c(F)cc(F)cc3[nH]2)CC1` the MIC [4] was 0.023 µM (≈ 0.00705 µg/mL).

With `O=c1nc(N2CCN(CC3CCCCC3)CC2)sc2c(-n3cccc3)cc(C(F)(F)F)cc12` the MIC [5] was 0.34 µM.

For `Oc1cc(Cl)ccc1Oc1ccc(Cl)cc1Cl` [TRICLOSAN], the MIC [6] was 138 µM (≈ 40 µg/mL).

With `OB1c2ccccc2N=C(S)N1c1cccnc1` the MIC [7] was 31.4 µM (≈ 8.01 µg/mL).

`CCOC(=O)NC(=O)c1ccsc1NC(=O)c1nc2ccccc2s1` showed an MIC [6] of 0.027 µM (≈ 0.0101 µg/mL).

`Cc1c(Cn2cc(C(=O)NCCO)c3ncccc32)ncnc1N(C)C` showed an MIC [8] of 0.5 µM (≈ 0.177 µg/mL).

`Cc1c(CN2CCOCC2)cc(-c2ccc(C(C)C)cc2)n1-c1ccc(F)cc1` showed an MIC [9] of 0.12 µM (≈ 0.0471 µg/mL).

`CCc1ccc([C@H]2C[C@@H](C(F)(F)F)n3ncc(C(=O)NCc4ccc5c(c4)OCO5)c3N2)cc1` gave an MIC [3] of 0.16 µM (≈ 0.0756 µg/mL).

With `Cc1cn2c(C(=O)NCc3ccc(N4CCC(c5ccc(OC(F)(F)F)cc5)CC4)cc3)c(C)nc2s1` the MIC [10] was 0.0009 µM (≈ 0.000476 µg/mL).

For `Cc1c(OCC(F)(F)F)ccnc1C[S+]([O-])c1nc2ccccc2[nH]1` (stereo not drawn) [LANSOPRAZOLE], the IC50 [5] was 2200 nM.

`CN(C)c1ccc(-c2nc3cc(F)c(-n4ccnc4)cc3n2Cc2ccccc2)cc1` gave an MIC [1] of 30.3 µM (≈ 12.5 µg/mL).

With `Cc1cn2c(C(=O)NCc3ccc(C(F)(F)F)cc3)c(C)nc2s1` the MIC [10] was 0.006 µM (≈ 0.00212 µg/mL).

For `C[C@H]1COC2(CCN(c3nc(=O)c4cc(C(F)(F)F)cc(-n5cccc5)c4s3)CC2)O1`, the MIC [5] was 0.35 µM.

In the case of `CCc1nc2ccc(Cl)cn2c1C(=O)NCc1ccc(N2CCC(c3ccc(OC(F)(F)F)cc3)CC2)cc1` [TELACEBEC], the bioavailability [11] is reported as 90%, the MIC50 [12] is reported as 0.00028 µM (≈ 0.000156 µg/mL) and the MIC50 [5] is reported as 0.0027 µM (≈ 0.0015 µg/mL).

Molecule `Cc1c(Cn2cc(C(=O)NCCO)c3ncccc32)ncnc1OC(F)F` has an MIC [8] of 0.78 µM (≈ 0.294 µg/mL).

Molecule `Fc1cc2nc(Cc3ccc(Cl)cc3)[nH]c2cc1-n1ccnc1` has an MIC [1] of 76.5 µM (≈ 25 µg/mL).

Molecule `CC(C)=CCC/C(C)=C/CNCCNC1C2CC3CC(C2)CC1C3` (stereo not drawn) [SQ109] has an MIC [6] of 0.78 µM (≈ 0.258 µg/mL).

`Cc1c(OCC(F)(F)F)ccnc1CSc1nc2ccccc2[nH]1` [LANSOPRAZOLE SULFIDE] showed an IC50 [13] of 590 nM, an MIC90 [14] of 1.13 µM (≈ 0.399 µg/mL) and an IC50 [5] of 460 nM.

In the case of `O=C(C1CCN(c2nnc(-n3cccc3)s2)CC1)N1CCC(Cc2ccccc2)CC1`, the MIC [6] is reported as 4 µM (≈ 1.74 µg/mL).

Molecule `Cc1ccc(-c2nc3ccc(C)cn3c2CC(=O)N(C)C)cc1` [ZOLPIDEM] has an MIC [15] of 10 µM (≈ 3.07 µg/mL).

Molecule `FC(F)(F)Oc1ccc(Oc2ccc(CN3CCC4(CC3)OCCc3sccc34)cc2)cc1` has an MIC [3] of 0.06 µM (≈ 0.0285 µg/mL).

`c1cc2c(s1)CCOC21CCN(Cc2ccc3c(c2)OCCO3)CC1` gave an MIC [3] of 0.3 µM (≈ 0.107 µg/mL).

`C[C@H]1COC2(CCN(c3nc(=S)c4cc(C(F)(F)F)cc([N+](=O)[O-])c4s3)CC2)O1` showed an MIC [16] of 0.02 µM (≈ 0.00895 µg/mL).

`Cc1c(CN2CCN(C)CC2)cc(-c2ccc(Cl)cc2)n1-c1ccc(Cl)cc1` gave an MIC [9] of 3.62 µM (≈ 1.5 µg/mL).

With `CC[C@@H](CO)NCCN[C@@H](CC)CO` [ETHAMBUTOL] the MIC [6] was 10 µM (≈ 2.04 µg/mL).

Molecule `CCc1ccn2c(C(=O)NCc3ccc(C)cc3)c(C)nc2c1` has an MIC [15] of 0.004 µM (≈ 0.00123 µg/mL).

With `C[C@H]1COC2(CCN(c3nc(=O)c4cc(C(F)(F)F)cc([N+](=O)[O-])c4s3)CC2)O1` [BTZ-043] the MIC [17] was 1 ng/mL (≈ 2.32 nM) and the MIC [5] was 0.00023 µM.

Work on `CC1(C)CCC(NC(=O)c2cc3c(Cl)cc(Cl)cc3[nH]2)CC1` yielded an MIC [4] of 0.015 µM (≈ 0.00509 µg/mL).

In the case of `CCCCCCc1ccc(Oc2ccccc2C#N)c(O)c1`, the MIC [6] is reported as 11 µM (≈ 3.25 µg/mL) and the TIME [18] is reported as 1.33 h.

Molecule `CCCCCCc1ccc(Oc2ccccc2C)c(O)c1` has an MIC [6] of 8.46 µM (≈ 2.41 µg/mL) and a TIME [18] of 0.4 h.

With `COc1ccc(CNc2nc3cc(C(F)(F)F)ccc3nc2C(=O)O)cc1` the MIC [5] was 3.1 µM.

In the case of `O=c1nc(N2CCN(CC3CCCCC3)CC2)sc2c([N+](=O)[O-])cc(C(F)(F)F)cc12` [MACOZINONE], the MIC [17] is reported as 0.19 ng/mL (≈ 0.416 nM) and the MIC [5] is reported as 0.19 ng/mL.
